Experimental data reported in article PMC5792594, “Engineering yeast for the production of breviscapine by genomic analysis and synthetic biology approaches” (Nature Communications, 2018).

System: T1, EbF7GAT
T1 construct: gene F7GAT; tag removal not mentioned
Assay: HPLC of glucuronide product, initial-rate kinetics
Format: biochemical, Erigeron breviscapus
Details: UDP-glucuronic acid as donor (1 mM in standard assay), 50 mM Tris-HCl pH 7.5, 37 °C

Km (5-300 µM scutellarein) [µM] | Km (10 min, 0.1-20 µM apigenin) [µM] | SMILES
70.2 |  | O=c1cc(-c2ccc(O)cc2)oc2cc(O)c(O)c(O)c12 [scutellarein]
 | 9.24 | O=c1cc(-c2ccc(O)cc2)oc2cc(O)cc(O)c12 [apigenin]
